Values quoted from earlier work in PMC9851200, “Multiparameter phenotypic screening for endogenous TFEB and TFE3 translocation identifies novel chemical series modulating lysosome function” (Autophagy, 2022).

Experiments:
Design in all cases: method as in original PKIS2 published data
[1] = molecular target: kinases (KINOMEscan panel) (Homo sapiens, UniProt Q96NX5); details: CAMK1G; Published KINOMEscan; ref original PKIS2 published data; cited from earlier work
[2] = molecular target: kinases (KINOMEscan panel) (Homo sapiens, UniProt P07333); details: Published KINOMEscan; ref original PKIS2 published data; cited from earlier work
[3] = molecular target: kinases (KINOMEscan panel) (Homo sapiens, UniProt Q13627); details: Published KINOMEscan; ref original PKIS2 published data; cited from earlier work
[4] = molecular target: kinases (KINOMEscan panel) (Homo sapiens, UniProt P07332); details: kinase FES; Published KINOMEscan; ref original PKIS2 published data; cited from earlier work
[5] = molecular target: kinases (KINOMEscan panel) (Homo sapiens, UniProt Q07002); details: kinase CDK18; Published KINOMEscan; ref original PKIS2 published data; cited from earlier work
[6] = molecular target: T1, kinases (KINOMEscan panel) (Homo sapiens, UniProt Q9UBE8); details: NLK; Published KINOMEscan; ref original PKIS2 published data; cited from earlier work
T1 sequence (Q9UBE8 1-527): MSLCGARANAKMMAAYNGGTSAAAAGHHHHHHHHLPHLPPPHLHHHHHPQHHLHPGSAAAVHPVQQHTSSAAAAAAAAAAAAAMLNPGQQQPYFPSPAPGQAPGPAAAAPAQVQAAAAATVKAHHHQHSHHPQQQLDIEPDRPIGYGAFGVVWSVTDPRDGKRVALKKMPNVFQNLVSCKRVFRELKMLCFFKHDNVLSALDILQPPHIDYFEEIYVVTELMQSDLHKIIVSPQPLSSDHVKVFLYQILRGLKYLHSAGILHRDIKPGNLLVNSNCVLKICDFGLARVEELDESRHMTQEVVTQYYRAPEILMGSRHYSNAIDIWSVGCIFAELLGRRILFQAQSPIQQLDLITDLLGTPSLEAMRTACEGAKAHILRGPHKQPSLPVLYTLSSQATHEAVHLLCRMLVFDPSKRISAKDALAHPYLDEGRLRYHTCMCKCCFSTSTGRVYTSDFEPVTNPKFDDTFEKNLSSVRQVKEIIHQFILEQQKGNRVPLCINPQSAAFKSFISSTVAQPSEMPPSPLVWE

[7] = molecular target: T2, kinases (KINOMEscan panel) (Homo sapiens, UniProt P57078); details: RIPK4; Published KINOMEscan; ref original PKIS2 published data; cited from earlier work
T2 sequence (P57078 1-832): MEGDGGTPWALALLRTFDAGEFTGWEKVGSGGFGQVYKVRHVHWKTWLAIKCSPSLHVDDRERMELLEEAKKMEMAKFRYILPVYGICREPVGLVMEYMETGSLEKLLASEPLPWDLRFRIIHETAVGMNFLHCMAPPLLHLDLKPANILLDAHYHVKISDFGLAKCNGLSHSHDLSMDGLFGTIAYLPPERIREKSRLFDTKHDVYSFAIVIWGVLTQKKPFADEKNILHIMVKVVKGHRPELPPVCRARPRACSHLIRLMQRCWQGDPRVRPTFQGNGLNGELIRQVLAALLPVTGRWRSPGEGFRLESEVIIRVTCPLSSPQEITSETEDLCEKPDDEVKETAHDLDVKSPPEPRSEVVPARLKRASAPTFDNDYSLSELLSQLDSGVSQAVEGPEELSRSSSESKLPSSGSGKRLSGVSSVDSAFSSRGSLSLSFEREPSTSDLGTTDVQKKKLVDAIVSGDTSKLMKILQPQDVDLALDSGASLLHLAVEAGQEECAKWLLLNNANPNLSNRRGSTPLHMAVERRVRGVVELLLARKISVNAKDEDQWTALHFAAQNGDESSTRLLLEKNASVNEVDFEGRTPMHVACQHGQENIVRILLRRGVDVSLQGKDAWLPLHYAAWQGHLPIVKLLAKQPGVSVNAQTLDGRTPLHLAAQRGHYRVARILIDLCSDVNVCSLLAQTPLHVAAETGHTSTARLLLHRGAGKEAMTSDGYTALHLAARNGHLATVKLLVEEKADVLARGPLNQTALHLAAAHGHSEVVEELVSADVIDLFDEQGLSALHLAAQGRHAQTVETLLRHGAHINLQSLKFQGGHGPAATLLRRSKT

[8] = molecular target: kinases (KINOMEscan panel) (Homo sapiens, UniProt Q13523); details: PRPF4B; Published KINOMEscan; ref original PKIS2 published data; cited from earlier work
[9] = molecular target: kinases (KINOMEscan panel) (Homo sapiens, UniProt Q9BVS4); details: RIOK2; Published KINOMEscan; ref original PKIS2 published data; cited from earlier work
[10] = molecular target: kinases (KINOMEscan panel) (Homo sapiens, UniProt Q13555); details: CAMK2G; Published KINOMEscan; ref original PKIS2 published data; cited from earlier work
[11] = molecular target: kinases (KINOMEscan panel) (Homo sapiens, UniProt Q8IVW4); details: kinase CDKL3; Published KINOMEscan; ref original PKIS2 published data; cited from earlier work
Chain of kinases (KINOMEscan panel) (Homo sapiens, UniProt Q8IVW4) (Q8IVW4 whole entry): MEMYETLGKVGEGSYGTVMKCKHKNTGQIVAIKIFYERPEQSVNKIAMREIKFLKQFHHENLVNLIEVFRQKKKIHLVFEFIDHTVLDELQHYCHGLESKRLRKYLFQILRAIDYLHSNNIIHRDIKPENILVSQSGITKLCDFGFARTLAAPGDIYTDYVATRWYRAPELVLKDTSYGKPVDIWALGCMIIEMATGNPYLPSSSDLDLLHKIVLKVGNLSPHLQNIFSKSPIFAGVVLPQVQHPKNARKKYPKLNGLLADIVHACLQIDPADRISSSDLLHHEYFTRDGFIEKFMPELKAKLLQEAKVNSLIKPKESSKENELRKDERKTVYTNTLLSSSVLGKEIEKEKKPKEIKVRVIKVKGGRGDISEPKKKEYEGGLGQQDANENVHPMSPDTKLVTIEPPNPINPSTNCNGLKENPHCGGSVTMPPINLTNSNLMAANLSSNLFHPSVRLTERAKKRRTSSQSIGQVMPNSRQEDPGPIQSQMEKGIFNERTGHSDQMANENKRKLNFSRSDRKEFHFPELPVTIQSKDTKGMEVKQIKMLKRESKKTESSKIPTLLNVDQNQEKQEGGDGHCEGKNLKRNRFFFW

Chain of kinases (KINOMEscan panel) (Homo sapiens, UniProt P07333) (P07333 20-972): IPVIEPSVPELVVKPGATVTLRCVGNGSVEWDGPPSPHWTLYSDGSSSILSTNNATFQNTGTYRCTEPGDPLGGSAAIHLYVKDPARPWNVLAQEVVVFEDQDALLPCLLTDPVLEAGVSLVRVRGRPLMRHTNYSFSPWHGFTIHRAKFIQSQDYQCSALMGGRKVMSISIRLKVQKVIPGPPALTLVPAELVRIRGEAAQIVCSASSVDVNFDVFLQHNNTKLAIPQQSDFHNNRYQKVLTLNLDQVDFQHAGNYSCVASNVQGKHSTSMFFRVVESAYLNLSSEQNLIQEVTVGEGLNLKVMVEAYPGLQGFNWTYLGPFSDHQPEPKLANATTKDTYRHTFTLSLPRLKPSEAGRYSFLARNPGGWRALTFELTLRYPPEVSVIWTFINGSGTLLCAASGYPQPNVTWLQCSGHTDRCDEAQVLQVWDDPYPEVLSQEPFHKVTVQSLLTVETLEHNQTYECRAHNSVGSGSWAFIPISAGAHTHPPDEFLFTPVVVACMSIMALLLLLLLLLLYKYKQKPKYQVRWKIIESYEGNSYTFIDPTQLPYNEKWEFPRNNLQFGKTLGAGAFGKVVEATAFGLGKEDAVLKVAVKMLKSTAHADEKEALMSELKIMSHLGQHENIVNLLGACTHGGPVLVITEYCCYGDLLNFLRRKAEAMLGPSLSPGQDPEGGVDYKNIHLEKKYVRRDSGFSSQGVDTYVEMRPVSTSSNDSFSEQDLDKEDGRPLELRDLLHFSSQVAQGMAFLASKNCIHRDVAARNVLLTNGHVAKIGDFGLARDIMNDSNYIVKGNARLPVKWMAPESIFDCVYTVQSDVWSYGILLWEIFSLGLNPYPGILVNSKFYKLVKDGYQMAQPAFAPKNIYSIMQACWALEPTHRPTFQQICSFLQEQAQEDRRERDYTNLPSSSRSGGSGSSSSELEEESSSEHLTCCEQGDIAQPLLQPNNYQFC
Chain of kinases (KINOMEscan panel) (Homo sapiens, UniProt Q13523) (Q13523 whole entry): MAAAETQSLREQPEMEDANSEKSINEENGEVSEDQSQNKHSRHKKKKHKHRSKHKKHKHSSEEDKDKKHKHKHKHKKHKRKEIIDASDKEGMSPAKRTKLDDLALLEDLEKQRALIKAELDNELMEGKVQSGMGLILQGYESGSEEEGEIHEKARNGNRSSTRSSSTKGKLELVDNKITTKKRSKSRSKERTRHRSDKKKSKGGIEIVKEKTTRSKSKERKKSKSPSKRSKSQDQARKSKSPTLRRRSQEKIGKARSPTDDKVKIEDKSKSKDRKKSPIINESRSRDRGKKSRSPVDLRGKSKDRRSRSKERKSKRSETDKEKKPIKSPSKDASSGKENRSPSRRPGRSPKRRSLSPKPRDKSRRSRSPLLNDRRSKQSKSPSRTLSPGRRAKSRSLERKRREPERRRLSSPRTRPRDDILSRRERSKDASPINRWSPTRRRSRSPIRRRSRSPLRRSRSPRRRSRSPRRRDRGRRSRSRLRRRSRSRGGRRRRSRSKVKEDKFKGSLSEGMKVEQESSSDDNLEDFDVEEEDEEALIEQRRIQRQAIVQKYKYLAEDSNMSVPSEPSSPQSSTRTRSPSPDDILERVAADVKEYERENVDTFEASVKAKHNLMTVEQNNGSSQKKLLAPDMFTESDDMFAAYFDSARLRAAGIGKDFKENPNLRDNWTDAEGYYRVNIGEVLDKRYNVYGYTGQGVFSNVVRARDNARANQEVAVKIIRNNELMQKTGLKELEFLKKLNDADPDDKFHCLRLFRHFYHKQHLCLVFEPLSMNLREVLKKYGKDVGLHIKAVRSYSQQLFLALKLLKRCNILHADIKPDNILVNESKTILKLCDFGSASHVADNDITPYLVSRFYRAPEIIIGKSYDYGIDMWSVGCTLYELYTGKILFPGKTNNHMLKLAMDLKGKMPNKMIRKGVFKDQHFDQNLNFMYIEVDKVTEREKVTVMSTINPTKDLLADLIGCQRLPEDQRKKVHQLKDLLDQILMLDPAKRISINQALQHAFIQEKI
Chain of kinases (KINOMEscan panel) (Homo sapiens, UniProt Q13555) (Q13555 whole entry): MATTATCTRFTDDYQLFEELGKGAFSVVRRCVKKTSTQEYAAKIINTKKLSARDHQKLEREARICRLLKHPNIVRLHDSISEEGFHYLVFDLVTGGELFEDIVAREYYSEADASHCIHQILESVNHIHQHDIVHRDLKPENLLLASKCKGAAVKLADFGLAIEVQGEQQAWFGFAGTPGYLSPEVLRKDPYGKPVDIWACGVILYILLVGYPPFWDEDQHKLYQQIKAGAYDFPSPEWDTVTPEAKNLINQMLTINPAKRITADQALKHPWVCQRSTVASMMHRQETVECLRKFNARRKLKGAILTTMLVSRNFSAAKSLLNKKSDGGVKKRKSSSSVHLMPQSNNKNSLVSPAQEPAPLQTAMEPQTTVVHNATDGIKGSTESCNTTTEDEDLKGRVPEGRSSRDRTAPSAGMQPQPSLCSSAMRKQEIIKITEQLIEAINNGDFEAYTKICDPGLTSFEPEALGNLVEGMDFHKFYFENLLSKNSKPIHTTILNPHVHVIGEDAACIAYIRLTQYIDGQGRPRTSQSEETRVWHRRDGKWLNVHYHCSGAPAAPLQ
Chain of kinases (KINOMEscan panel) (Homo sapiens, UniProt Q96NX5) (Q96NX5 whole entry): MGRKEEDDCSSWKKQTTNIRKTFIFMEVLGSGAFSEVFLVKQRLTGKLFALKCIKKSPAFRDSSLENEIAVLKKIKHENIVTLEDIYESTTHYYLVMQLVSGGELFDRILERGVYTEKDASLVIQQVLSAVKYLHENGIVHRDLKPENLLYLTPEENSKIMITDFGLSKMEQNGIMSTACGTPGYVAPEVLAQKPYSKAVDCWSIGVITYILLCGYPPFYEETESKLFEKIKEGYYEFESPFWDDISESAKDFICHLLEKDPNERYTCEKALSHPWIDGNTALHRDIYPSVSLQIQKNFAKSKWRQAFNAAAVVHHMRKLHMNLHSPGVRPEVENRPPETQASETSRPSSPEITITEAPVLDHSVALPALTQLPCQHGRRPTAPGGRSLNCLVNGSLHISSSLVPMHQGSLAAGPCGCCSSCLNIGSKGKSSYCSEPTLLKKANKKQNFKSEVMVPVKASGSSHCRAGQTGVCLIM
Chain of kinases (KINOMEscan panel) (Homo sapiens, UniProt Q07002) (Q07002 whole entry): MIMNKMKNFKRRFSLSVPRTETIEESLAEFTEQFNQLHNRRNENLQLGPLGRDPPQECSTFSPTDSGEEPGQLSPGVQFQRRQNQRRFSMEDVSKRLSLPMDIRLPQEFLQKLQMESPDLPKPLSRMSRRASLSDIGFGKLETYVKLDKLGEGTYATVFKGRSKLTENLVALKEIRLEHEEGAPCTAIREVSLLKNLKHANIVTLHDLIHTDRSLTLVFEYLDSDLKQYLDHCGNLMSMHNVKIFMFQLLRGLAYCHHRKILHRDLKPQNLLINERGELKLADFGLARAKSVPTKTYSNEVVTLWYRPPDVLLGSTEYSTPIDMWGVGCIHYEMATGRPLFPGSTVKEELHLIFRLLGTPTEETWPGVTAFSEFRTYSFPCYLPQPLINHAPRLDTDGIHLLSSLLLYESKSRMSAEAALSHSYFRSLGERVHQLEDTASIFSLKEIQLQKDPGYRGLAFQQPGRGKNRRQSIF
Chain of kinases (KINOMEscan panel) (Homo sapiens, UniProt P07332) (P07332 whole entry): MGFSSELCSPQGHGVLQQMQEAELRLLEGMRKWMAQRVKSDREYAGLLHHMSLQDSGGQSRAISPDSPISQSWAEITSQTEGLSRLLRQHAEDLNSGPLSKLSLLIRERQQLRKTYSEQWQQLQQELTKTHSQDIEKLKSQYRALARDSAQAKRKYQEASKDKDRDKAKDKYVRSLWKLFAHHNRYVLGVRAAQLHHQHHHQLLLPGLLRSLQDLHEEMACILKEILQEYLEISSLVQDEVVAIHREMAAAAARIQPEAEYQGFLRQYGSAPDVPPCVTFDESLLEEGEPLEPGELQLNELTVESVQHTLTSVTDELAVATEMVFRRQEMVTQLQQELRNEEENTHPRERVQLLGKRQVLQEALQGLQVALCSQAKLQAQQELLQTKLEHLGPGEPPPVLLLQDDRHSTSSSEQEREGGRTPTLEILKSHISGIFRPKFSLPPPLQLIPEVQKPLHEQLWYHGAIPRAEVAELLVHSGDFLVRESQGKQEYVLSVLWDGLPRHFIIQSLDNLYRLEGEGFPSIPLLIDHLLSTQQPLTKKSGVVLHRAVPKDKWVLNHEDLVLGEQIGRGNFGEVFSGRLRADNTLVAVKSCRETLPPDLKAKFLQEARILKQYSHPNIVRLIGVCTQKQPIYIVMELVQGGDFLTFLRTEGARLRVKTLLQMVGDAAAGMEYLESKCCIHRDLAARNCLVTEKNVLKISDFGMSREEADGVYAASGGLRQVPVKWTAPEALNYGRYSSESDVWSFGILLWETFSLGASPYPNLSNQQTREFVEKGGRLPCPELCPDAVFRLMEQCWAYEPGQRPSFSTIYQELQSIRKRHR

Cc1cccc(-c2nc(Nc3ccncc3)c3ccccc3n2)n1 [NK215]
17: KINOMEscan PRPF4B [8]
0: KINOMEscan CAMK1G [1] | KINOMEscan CSF1R [2] | KINOMEscan CSF1R-autoinhibited [2] | KINOMEscan DYRK1A [3] | KINOMEscan CDK18 [5] | KINOMEscan RIPK4 [7] | KINOMEscan RIOK2 [9] | KINOMEscan CAMK2G [10] | KINOMEscan CDKL3 [11]
13: KINOMEscan FES [4]
47: KINOMEscan NLK [6]
